Source: US3960845A, “Process for preparing 7β-acylamino-7α-alkoxycephalosporins or 6β-acylamino-6α-alkoxypenicillins” (Sankyo Company Limited, priority 1974, dated 1976)
Values after ≈ are worked out from the molar mass of the structure shown. Where two headings read alike, the source gives them in different places.

How the values were obtained:
Format in all cases: cell-based
[1] = test system: Staphylococcus aureus (CP and PC resistant); test: Minimal inhibitory concentration; settings: I B: Staphylococcus aureus (CP and PC resistant)
Source text: (§1) Minimal inhibitory concentrations of various microorganisms mcg/ml
1 B Staphylococcus aureus

[2] = test system: Salmonella enteritidis Gaertner; test: Minimal inhibitory concentration; settings: Salmonella enterica; VI: Salmonella enteritidis Gaertner; read-out: Minimal inhibitory concentration
Source text: as §1
VI Salmonella enteritidis Gaertner

[3] = test system: Staphylococcus aureus 209p; test: Minimal inhibitory concentration; settings: I A: Staphylococcus aureus 209p; read-out: Minimal inhibitory concentration
Source text: as §1
1 A Staphylococcus aureus 209p

[4] = test system: Shigella flexneri Komagome; test: Minimal inhibitory concentration; settings: read-out: Minimal inhibitory concentration
Source text: as §1
III Shigella flexneri Komagome

[5] = test system: Klebsiella neumoniae 846 (CER resistant); test: Minimal inhibitory concentration; settings: IV B: Klebsiella neumoniae 846 (CER resistant)
Source text: as §1
IV B Klebsiella neumoniae 846 (CER resistant)

E. coli NIHJ = test: Minimal inhibitory concentration; settings: Escherichia coli; II A: E. coli NIHJ
Source text: as §1

Proteus vulgaris = test: Minimal inhibitory concentration; settings: V: Proteus vulgaris; read-out: Minimal inhibitory concentration
Source text: as §1

[6] = test system: E. coli 609 (CER resistant); test: Minimal inhibitory concentration; settings: Escherichia coli; II B: E. coli 609 (CER resistant); read-out: Minimal inhibitory concentration
Source text: as §1
II B E. coli 609 (CER resistant)

[7] = test system: broad pathogenic microorganisms; test: antimicrobial activity; settings: result in words
Klebsiella neumoniae 806 = test: Minimal inhibitory concentration; settings: IV A: Klebsiella neumoniae 806; read-out: Minimal inhibitory concentration
Source text: as §1
IV A Klebsiella neumoniae 806

[8] = III: Shigella flexneri Komagome

Row | SMILES | MIC [1] [µg/mL] | MIC [2] [µg/mL] | MIC [3] [µg/mL] | MIC [4, 8] [µg/mL] | MIC [5] [µg/mL] | MIC (E. coli NIHJ) [µg/mL] | MIC (Proteus vulgaris) [µg/mL] | MIC [6] [µg/mL] | antimicrobial activity against broad pathogenic microorganisms [7] | MIC (Klebsiella neumoniae 806) [µg/mL] | MIC ([4]; Shigella flexneri) [µg/mL]
1 | CO[C@@]1(NC(=O)CS(C)(=O)=O)C(=O)N2C(C(=O)O)=C(CSc3nnnn3C)CS[C@@H]21 [7β-methylsulfonylacetamido-7α-methoxy-3-(1-methyl-1H-tetrazole-5-yl)thiomethyl-3-cephem-4-carboxylic acid] | 3.1 (≈ 6.48 µM) | 0.4 (≈ 0.836 µM) | 0.8 (≈ 1.67 µM) | 1.5 (≈ 3.13 µM) | 400 (≈ 836 µM) | 1.5 (≈ 3.13 µM) | 12.5 (≈ 26.1 µM) | 1.5 (≈ 3.13 µM) | excellent antimicrobial activity | 0.8 (≈ 1.67 µM) | –
2 | C#CCSCC(=O)N[C@]1(OC)C(=O)N2C(C(=O)O)=C(CSc3nnnn3C)CS[C@@H]21 [7β-propargylthioacetamido-7α-methoxy-3-(1-methyl-1H-tetrazol-5-yl)thiomethyl-3-cephem-4-carboxylic acid] | 0.8 (≈ 1.7 µM) | 0.8 (≈ 1.7 µM) | 0.2 (≈ 0.425 µM) | 3.1 (≈ 6.59 µM) | 400 (≈ 850 µM) | 3.1 (≈ 6.59 µM) | 3.1 (≈ 6.59 µM) | 3.1 (≈ 6.59 µM) | excellent antimicrobial activity | 3.1 (≈ 6.59 µM) | –
3 | C#CCSCC(=O)N[C@]1(OC)C(=O)N2C(C(=O)O)=C(COC(C)=O)CS[C@@H]21 [7β-propargylthioacetamido-7α-methoxy-3-acetoxymethyl-3-cephem-4-carboxylic acid] | 3.1 (≈ 7.48 µM) | 1.5 (≈ 3.62 µM) | 0.8 (≈ 1.93 µM) | 6.2 (≈ 15 µM) | > 400 | 3.1 (≈ 7.48 µM) | 6.2 (≈ 15 µM) | 6.2 (≈ 15 µM) | excellent antimicrobial activity | 6.2 (≈ 15 µM) | –
4 | C#CCSCC(=O)N[C@]1(OC)C(=O)N2C(C(=O)O)=C(COC(N)=O)CS[C@@H]21 [7β-propargylthioacetamido-7α-methoxy-3-carbamoyloxymethyl-3-cephem-4-carboxylic acid] | 1.5 (≈ 3.61 µM) | 1.5 (≈ 3.61 µM) | 0.8 (≈ 1.93 µM) | – | > 400 | 3.1 (≈ 7.46 µM) | 6.2 (≈ 14.9 µM) | 3.1 (≈ 7.46 µM) | excellent antimicrobial activity | 3.1 (≈ 7.46 µM) | 6.2 (≈ 14.9 µM)
